Molecular target: Trace amine-associated receptor 1 (Mus musculus, UniProt Q923Y8)
Assay: Binding assay: Binding assay was performed at 4 C. in a final volume of 1 ml, and with an incubation time of 30 min. The radioligand [3H]-rac-2-(1,2,3,4-tetrahydro-1-naphthyl)-2-imidazoline was used at a concentration equal to the calculated Kd value of 60 nM to give a bound at around 0.1% of the total added radioligand concentration, and a specific binding which represented approximately 70-80% of the total binding. Non-specific binding was defined as the amount of [3H]-rac-2-(1,2,3,4-tetrahydro-1-naphthyl)-2-imidazoline bound in the presence of the appropriate unlabelled ligand (10 μM). Competing ligands were tested in a wide range of concentrations ([…]).

Chain of Trace amine-associated receptor 1 (Q923Y8 whole entry): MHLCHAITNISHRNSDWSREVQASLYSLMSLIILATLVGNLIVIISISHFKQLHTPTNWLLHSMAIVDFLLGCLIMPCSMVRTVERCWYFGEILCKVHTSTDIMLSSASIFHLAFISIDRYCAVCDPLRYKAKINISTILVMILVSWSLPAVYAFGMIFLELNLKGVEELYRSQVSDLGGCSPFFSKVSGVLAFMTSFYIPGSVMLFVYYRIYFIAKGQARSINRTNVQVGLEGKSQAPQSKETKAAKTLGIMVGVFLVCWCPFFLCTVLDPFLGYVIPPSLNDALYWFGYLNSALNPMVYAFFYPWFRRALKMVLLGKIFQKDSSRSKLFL

NC1=N[C@@H](CCC2(c3ccccc3)CC2)CO1
Ki: 0.5 nM

— ChEMBL document CHEMBL3638960, “4,5-dihydro-oxazol-2yl derivatives” (2014)
